Measured values taken from ChEMBL document CHEMBL4130584, “Sesqui- and Diterpenoids from the Radix of Curcuma aromatica” (2017).

Tests used:
Format in all cases: functional
PC-12 [1] = assay: Antioxidant activity against H2O2-induced cell damage in rat PC12 cells assessed as cell viability at 1 uM after 24 hrs by MTT assay (reference value: 64.34 +/- 1.02 %); details: for viability at 1 µM: PC-12, 24 h, read-out: Activity
PC-12 [2] = assay: Antioxidant activity against H2O2-induced cell damage in rat PC12 cells assessed as cell viability at 5 uM after 24 hrs by MTT assay (reference value: 64.34 +/- 1.02 %); details: PC-12, 24 h, read-out: Activity
PC-12 [3] = assay: Antioxidant activity against H2O2-induced cell damage in rat PC12 cells assessed as cell viability at 10 uM after 24 hrs by MTT assay (reference value: 64.34 +/- 1.02 %); details: PC-12, 24 h, read-out: Activity

Row | Compound | viability at 1 µM (PC-12 [1]) | viability at 5 µM (PC-12 [2]) | viability at 10 µM (PC-12 [3]) | Activity (PC-12 [1])
1 | CC1=C2CC[C@](C)(O)[C@H]2CC2=C(C)C(=O)O[C@@]2(O)C1 | 82.7% | 76.8% | 74.3% | 
2 | CC1=C2CC(=O)[C@@H](C)CC/C=C(\C)C[C@@]2(O)OC1=O | 74.5% | 76.1% | 78.4% | 
3 | VITAMIN E |  |  |  | 80.9%
4 | CC1=C2C[C@]34O[C@](C)(C[C@H]2OC1=O)[C@H]3CC[C@@H]4C | 67.4% | 71.6% | 79.3% | 
5 | C=C1CC[C@H]2C(C)(C)CCC[C@]2(C)[C@H]1CCC1=CC(=O)OC1 | 67.1% | 70.2% | 72.1% | 
6 | CC1=CC(=O)[C@]23C[C@]24[C@@]1(O)CC[C@]4(C)OC3(C)C | 72.7% | 74.8% | 77.2% | 
7 | CC(C)C1=CC[C@@](C)(O)[C@@H]2CC[C@@](C)(O)[C@@H]2C1 | 69.5% | 77.9% | 77.7% | 
8 | CC1=CC(=O)C(=C(C)C)C[C@H]2[C@H]1CC[C@]2(C)O [PROCURCUMENOL] | 66.4% | 70% | 69.6% | 
9 | CC1=C2C[C@@]34O[C@]2(OC1=O)[C@H](O)[C@](C)(O)[C@@H]3CC[C@H]4C | 73.7% | 77.7% | 79.8% | 
10 | CC1=C2CC(=O)[C@@H](C)CC/C=C(\C)C[C@H]2OC1=O | 65.4% | 77.4% | 80.2% | 
11 | CC1=CC(=O)C(=C(C)C)C[C@@]2(O)[C@H](C)CC[C@@H]12 | 69.5% | 68.8% | 76.2% | 
12 | CC1=C2C[C@@H]3[C@H](CC[C@@]3(C)O)[C@](C)(O)C[C@H]2OC1=O | 67.5% | 72% | 76.4% | 
13 | CC1=C2C[C@@H]3[C@](C)(CCC[C@@]3(C)O)C[C@]2(O)OC1=O | 81.2% | 80.9% | 90.1% | 
14 | CC1=CC(=O)O[C@@]2(CC(=O)C(C)C)[C@@H](C)CC[C@@H]12 | 73.4% | 83.5% | 89% | 
15 | CC1=C2CC[C@](C)(O)[C@H]2CC2=C(C)C(=O)OC2=C1 | 82.9% | 84% | 88.7% | 
16 | CC(C)=C1C[C@H]2[C@@H](CC[C@]2(C)O)[C@](C)(O)CC1=O [ZEDOARONDIOL] | 81.9% | 70.3% | 72.6% | 
17 | CC1=C2C[C@H]3[C@H](CC[C@]3(C)O)[C@@](C)(O)C[C@]2(O)OC1=O [ZEDOAROLIDE B] | 76.1% | 77% | 80.7% | 
18 | Cc1cc2oc(=O)c(C)c-2cc2c1CC[C@H]2C | 68.1% | 70.6% | 72.5% | 
19 | C=C(C)C(=O)C[C@@]12OC(=O)C=C(C)[C@@H]1CC[C@@H]2C | 69.3% | 72.4% | 75.9% | 
20 | C=C[C@]1(C)C[C@@H]2OC(=O)C(C)=C2C[C@H]1C(=C)C [ISOGERMAFURENOLIDE] | 62.5% | 63.7% | 67.2% | 
21 | Cc1cc(=O)c(C(C)C)cc2c1CC[C@]2(C)O | 77.7% | 76.7% | 75.2% | 
22 | CC(=O)CCc1c(C)cc(O)c2c1C(=O)OC2(C)C | 65.4% | 68.7% | 70.2% | 
23 | CC(C)=C1C[C@]2(O)[C@@H](CC[C@@H]2C)[C@@](C)(O)CC1=O | 66.3% | 64% | 65.2% | 
24 | C[C@]12CCC[C@](C)(C(=O)O)[C@@H]1CC[C@@]13CC[C@@H]([C@H](O)[C@H]21)[C@]1(C)O[C@H]31 | 68.2% | 70.8% | 72.3% | 
25 | CCO[C@]12C/C(C)=C/CC[C@@H](C)C(=O)CC1=C(C)C(=O)O2 | 77.7% | 80.9% | 85.2% | 
26 | CC1=C2C[C@H]3[C@H](CC[C@]3(C)O)[C@@](C)(O)C[C@@H]2OC1=O [ZEDOALACTONE C] | 73.1% | 77.3% | 81% | 
27 | CC1(C)CCC[C@]2(C)[C@@H]1CC[C@](O)(CO)[C@H]2C/C=C1\CCOC1=O | 67.6% | 72.2% | 74.1% | 
28 | C=C1CC[C@H]2C(C)(C)[C@@H](O)CC[C@]2(C)[C@H]1C/C=C1\CCOC1=O | 66.9% | 67.1% | 67.4% | 
